According to publication PMC8151276, “An Integrated Approach toward NanoBRET Tracers for Analysis of GPCR Ligand Engagement” (Molecules, 2021):

Tests used:
Format in all cases: binding
NMUR2 = molecular target: T1, NMUR2 (Homo sapiens, UniProt Q9GZQ4); assay: NanoBRET screen HiBiT-NMUR2 in HEK293
T1 construct: purchased Promega (in-house HiBiT-GPCR construct library, NanoBRET)
Description: (§1) Each tracer candidate was screened across the entire library of HiBiT-GPCR constructs using NanoBRET as the detection modality. As depicted in Figure 4A, the specificity of interactions was evaluated through decrease in BRET due to competitive displacement of a bound tracer by excess parental compound. Each tracer was analyzed for binding to each HiBiT-GPCR fusion in the absence and in the presence of competing parental compound. Briefly, HEK293 cells were transfected with HiBiT-GPCR constructs diluted into promoterless DNA to reduce expression and maximize translocation to the cell surface. Each tracer candidate was then screened at concentrations of 1 μM and 0.1 μM across cells expressing these fusions. Cells were treated for 1.5 h with tracer either alone or in the presence of 20 μM competing parental compound (i.e., control). BRET was measured upon addition of purified LgBiT and subsequent complementation with HiBiT genetically fused to a GPCR. The specificity of interactions was assessed through a decrease in BRET signal due to competitive displacement of the bound tracer. To further gauge the robustness of these interactions, the fold response over the control (i.e., BRETtracer/BRETcontrol) was calculated. We chose a 1.5-fold response, which translates to ≥7-fold signal over noise as the minimal threshold required to score an interaction as positive. […]. Below we highlight the screening results obtained for our exemplary fluorescent tracers based on Clozapine, Amitriptyline and AZD1283.
(§2) HiBiT-GPCR DNA constructs were diluted in 10 mM Tris pH 8 to a final concentration of 0.01 μg/μL, arrayed in 96-well plates and stored at −20 °C. For transfection, HEK293 cells were suspended in Opti-MEM (without phenol red) supplemented with 2% fetal bovine serum (Seradigm) and 100 units/mL penicillin–streptomycin (Gibco) at a final concentration of 220,000 cells/mL and dispensed into white 96-well plates at 90 μL/well. Subsequent transfections and screens were carried using an Agilent Bravo Automated Liquid Handling Platform. First, the 96-well HiBiT DNA arrays were diluted 25-fold in Opti-MEM (without serum or phenol red) to a final concentration of 0.0004 μg/μL and 20 μL of the diluted DNAs were transferred into new 96-well plates. Next, promoterless carrier DNA (1 μg/μL) was diluted 25-fold (0.04 μg/μL) and then dispensed into the diluted arrays at 20 μL/well. Following brief mixing, Viafect transfection reagent (Promega) diluted 16-fold into Opti-MEM was dispensed into the plates at 40 μL/well. After mixing by pipetting, plates were incubated for 10 min on the pipetting station deck. The DNA-transfection reagent complexes were then added to plates containing cells. To facilitate the screen, 10 μL of DNA-transfection reagent complexes were added in duplicates to the top 4 and bottom 4 rows, resulting in two identical 48-well arrays per plate. Plates with transfected cells were incubated for 18–20 h at 37 °C/5% CO2. A screen of each tracer across the entire library using two different concentrations requires duplicate plates of transfected cells. Depending on the number of tracers being screened, transfections can be scaled up using the same ratios. The next day, for each tracer, four 20× screening solutions in tracer dilution buffer (Promega) were prepared: two duplicates at final concentration of 20 μM and two duplicates at a final concentration of 2 μM. A competing unmodified compound was added to one of each duplicate at a final concentration of 400 μM. The four resulting solutions were diluted 4-fold in Opti-MEM without serum or phenol red to generate 5× solutions (5 µM and 0.5 µM tracer +/− 100 μM competing compound). To screen the library, a BioTek MultiFlo FX liquid dispenser was used to dispense 22.5 µL of tracer solution to the top 4 rows and 22.5 µL tracer + competing compound solution to the 4 bottom rows. Plates were briefly mixed on an orbital shaker and incubated for 1.5 h at room temperature. […]

TACR2 = molecular target: T2, TACR2 (Homo sapiens, UniProt P21452); assay: NanoBRET screen HiBiT-TACR2 in HEK293
T2 construct: purchased Promega (in-house HiBiT-GPCR construct library, NanoBRET)
T2 sequence (P21452 1-398): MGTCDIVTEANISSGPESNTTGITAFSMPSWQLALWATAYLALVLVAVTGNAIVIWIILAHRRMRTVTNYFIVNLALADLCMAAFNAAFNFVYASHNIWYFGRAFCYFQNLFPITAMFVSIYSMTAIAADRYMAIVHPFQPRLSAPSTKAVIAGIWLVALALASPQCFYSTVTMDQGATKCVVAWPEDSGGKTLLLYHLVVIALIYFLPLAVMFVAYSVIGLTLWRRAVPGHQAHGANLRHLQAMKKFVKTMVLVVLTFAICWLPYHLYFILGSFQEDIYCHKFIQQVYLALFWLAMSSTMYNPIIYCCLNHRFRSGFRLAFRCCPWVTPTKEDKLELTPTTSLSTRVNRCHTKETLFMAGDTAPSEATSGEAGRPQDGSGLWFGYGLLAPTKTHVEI
Description: as §1, §2

FZD4 = molecular target: T3, FZD4 (Homo sapiens, UniProt Q9ULV1); assay: NanoBRET screen HiBiT-FZD4 in HEK293
T3 construct: purchased Promega (in-house HiBiT-GPCR construct library, NanoBRET)
T3 sequence (Q9ULV1 37-537): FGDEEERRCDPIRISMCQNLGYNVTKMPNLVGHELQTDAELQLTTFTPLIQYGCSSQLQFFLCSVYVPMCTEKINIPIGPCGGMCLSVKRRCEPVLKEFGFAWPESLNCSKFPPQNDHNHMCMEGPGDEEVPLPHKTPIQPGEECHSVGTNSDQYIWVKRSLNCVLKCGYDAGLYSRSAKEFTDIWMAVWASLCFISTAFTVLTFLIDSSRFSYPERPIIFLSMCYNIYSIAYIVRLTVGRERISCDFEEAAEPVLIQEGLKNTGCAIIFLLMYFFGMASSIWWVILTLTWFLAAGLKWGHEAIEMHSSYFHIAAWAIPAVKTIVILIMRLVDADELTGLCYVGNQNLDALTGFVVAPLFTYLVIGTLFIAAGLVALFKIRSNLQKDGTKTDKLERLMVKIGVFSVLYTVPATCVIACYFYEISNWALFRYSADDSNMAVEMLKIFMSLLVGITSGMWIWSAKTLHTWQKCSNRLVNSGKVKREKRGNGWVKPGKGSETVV
Description: as §1, §2

T1 sequence (Q9GZQ4 whole entry): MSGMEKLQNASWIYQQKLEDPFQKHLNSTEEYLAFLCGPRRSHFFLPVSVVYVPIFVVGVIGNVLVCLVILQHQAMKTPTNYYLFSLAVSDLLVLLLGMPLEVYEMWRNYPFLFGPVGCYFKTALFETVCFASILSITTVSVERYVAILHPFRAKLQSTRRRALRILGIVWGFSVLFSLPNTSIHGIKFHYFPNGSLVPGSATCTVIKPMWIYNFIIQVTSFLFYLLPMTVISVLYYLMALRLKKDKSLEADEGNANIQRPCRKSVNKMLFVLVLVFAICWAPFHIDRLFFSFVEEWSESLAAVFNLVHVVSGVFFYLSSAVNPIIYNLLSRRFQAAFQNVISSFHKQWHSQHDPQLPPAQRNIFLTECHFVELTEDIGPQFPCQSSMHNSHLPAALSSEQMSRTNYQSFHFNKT

CN(C)CCC=C1c2ccccc2CCc2ccc(C(=O)NCCNC(=O)CCOCCOCCOCCOCCNC(=O)CCc3ccc4n3[B-](F)(F)[N+]3=C(c5ccc[nH]5)C=CC3=C4)cc21 [Amitriptyline-a-2-NB590]
NanoBRET Fold Response (NMUR2; tracer at 0.1μM): 1.00 | NanoBRET Fold Response (NMUR2; tracer at 1μM): 1.02 | NanoBRET Fold Response (TACR2; tracer at 0.1μM): 1.10 | NanoBRET Fold Response (TACR2; tracer at 1μM): 1.13 | NanoBRET Fold Response (FZD4; tracer at 0.1μM): 1.01 | NanoBRET Fold Response (FZD4; tracer at 1μM): 1.01

Cc1nc2n(c(=O)c1CCN1CCC(c3noc4cc(F)ccc34)CC1)CCCC2OC(=O)NCCOCCOCCOCCOCCNC(=O)CCc1ccc2n1[B-](F)(F)[N+]1=C(c3ccc[nH]3)C=CC1=C2 (centres unmarked) [Risperidone-2-NB590]
NanoBRET Fold Response (NMUR2; NMUR2, tracer 0.1μM): 1.09 | NanoBRET Fold Response (NMUR2; NMUR2, tracer 1μM): 1.05 | NanoBRET Fold Response (TACR2; TACR2, tracer 0.1μM): 1.18 | NanoBRET Fold Response (TACR2; TACR2, tracer 1μM): 1.09 | NanoBRET Fold Response (FZD4; FZD4, tracer 0.1μM): 1.14 | NanoBRET Fold Response (FZD4; FZD4, tracer 1μM): 1.01

COc1ccc2[nH]c(-c3ccc(CNC(=O)CCOCCOCCOCCOCCNC(=O)CCc4ccc5n4[B-](F)(F)[N+]4=C(c6ccc[nH]6)C=CC4=C5)cc3)c(CCNC(C)=O)c2n1 [AzomelatoninICO9-2-NB590]
NanoBRET Fold Response (NMUR2; 0.1μM tracer): 0.71 | NanoBRET Fold Response (NMUR2; 1μM tracer): 0.99 | NanoBRET Fold Response (TACR2; 0.1μM tracer): 0.37 | NanoBRET Fold Response (TACR2; 1μM tracer): 0.84 | NanoBRET Fold Response (FZD4; 0.1μM tracer): 0.89 | NanoBRET Fold Response (FZD4; 1μM tracer): 1.08

COc1ccccc1N1CCN(CCCCN2C(=O)c3ccc(CNC(=O)CCOCCOCCOCCOCCNC(=O)CCc4ccc5n4[B-](F)(F)[N+]4=C(c6ccc[nH]6)C=CC4=C5)cc3C2=O)CC1 [NAN-190-2-NB590]
NanoBRET Fold Response (TACR2; TACR2, tracer 0.1μM): 0.88 | NanoBRET Fold Response (TACR2; TACR2, tracer 1μM): 1.04 | NanoBRET Fold Response (FZD4; FZD4, tracer 0.1μM): 1.03 | NanoBRET Fold Response (FZD4; FZD4, tracer 1μM): 1.08

O=C(CCc1ccc2n1[B-](F)(F)[N+]1=C(c3ccc[nH]3)C=CC1=C2)NCCOCCOCCNC(=O)OCCOCCN1CCN(C2=Nc3ccccc3Sc3ccccc32)CC1 [Quetiapine-a-2-NB590]
NanoBRET Fold Response (NMUR2; NMUR2, tracer 0.1μM): 1.02 | NanoBRET Fold Response (NMUR2; NMUR2, tracer 1μM): 0.82 | NanoBRET Fold Response (TACR2; TACR2, tracer 0.1μM): 1.22 | NanoBRET Fold Response (TACR2; TACR2, tracer 1μM): 0.72 | NanoBRET Fold Response (FZD4; FZD4, tracer 0.1μM): 0.96 | NanoBRET Fold Response (FZD4; FZD4, tracer 1μM): 0.91

O=C(CCOCCOCCOCCOCCNC(=O)CCc1ccc2n1[B-](F)(F)[N+]1=C(c3ccc[nH]3)C=CC1=C2)NCCCN1CCN(C2=Nc3cc(Cl)ccc3Nc3ccccc32)CC1 [Clozapine-a-2-NB590]
NanoBRET Fold Response (NMUR2; NMUR2, 0.1μM tracer): 0.93 | NanoBRET Fold Response (NMUR2; NMUR2, 1μM tracer): 1.01 | NanoBRET Fold Response (TACR2; TACR2, 0.1μM tracer): 1.02 | NanoBRET Fold Response (TACR2; TACR2, 1μM tracer): 0.89 | NanoBRET Fold Response (FZD4; FZD4, 0.1μM tracer): 1.20 | NanoBRET Fold Response (FZD4; FZD4, 1μM tracer): 0.95

CN(CCC=C1c2ccccc2CCc2ccccc21)C(=O)CCOCCOCCOCCOCCNC(=O)CCc1ccc2n1[B-](F)(F)[N+]1=C(c3ccc[nH]3)C=CC1=C2 [Amitriptyline-e-2-NB590]
NanoBRET Fold Response (FZD4; tracer at 1μM): 0.97
